# PubChem BioAssay AID1194 (EPA DSSTox, 2008)
# Active and inactive are the calls of the source.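 How the source made its calls: active means chemicals rated mutagenic or weakly mutagenic in the Salmonella bacterial test by one literature review, or positive overall by another; inconclusive means no clear call, values can overlap the other calls; inactive means the rest.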
# Test system: Salmonella typhimurium Ames mutagenicity, literature compiled
# Assay: DSSTox (CPDBAS) Carcinogenic Potency Database Salmonella Mutagenicity
# From the text: The Carcinogenic Potency Database (CPDB) is a unique and widely used international resource of the results of over 6500 chronic, long-term animal cancer tests on over 1500 chemical substances. The CPDB provides easy access to the bioassay literature, with qualitative and quantitative analyses of both positive and negative experiments that have been published over the past 50 years in the general literature and by the National Cancer Institute/National Toxicology Program. The CPDB standardizes the diverse literature of cancer bioassays that vary widely in protocol, histopathological examination and nomenclature, and in the published author's choices of what information to provide in their papers. Results are reported in the CPDB for tests in rats, mice, hamsters, dogs, and nonhuman primates, and are based on the most positive result among all experiments for each sex-species. The DSSTox CPDBAS (all species) file incorporates data from the CPDB Summary Tables for the full list of over 1500 chemical substances tested in at least one species.
# A chemical is classified within the CPDB as mutagenic, i.e. "active", in the Salmonella assay if it was evaluated overall as either "mutagenic" or "weakly mutagenic" by Zeiger [Zeiger, E. (1997) Genotoxicity Database. In: Gold and Zeiger, Eds. Handbook of Carcinogenic Potency and Genotoxicity Databases. Boca Raton, FL: CRC Press, pp. 687-729. http://potency.berkeley.edu/CRCbook.html] or as overall "positive" by the EPA Gene-Tox Program [Kier et al. (1986) Mutat. Res. 168: 69-240].
row,Compound,outcome
1,Nc1ccc(S(=O)(=O)c2ccc(N)cc2)cc1,inactive; active
2,Cc1ccc(N)c(C)c1,active
3,c1ccc2c(c1)ccc1cc3c(ccc4ccccc43)cc12,active
4,O=C(O)C(Cl)(Cl)Cl,inactive
5,Cc1cc(Cl)ccc1N,inactive; active
6,Cc1cc(C)c(N=Nc2c(O)c(S(=O)(=O)O)cc3cc(S(=O)(=O)O)ccc23)cc1C,inactive; active
7,O=[N+]([O-])c1ccc(-c2cscn2)o1,active; inactive
8,CCOC(=O)CBr,active
9,FC(F)OC(F)(F)C(F)Cl (stereo not given),inactive; active
10,Cc1cccn2c1nc1ccc(N)nc12,active
11,O=[N+]([O-])c1ccc(Nc2ccc(Nc3ccccc3)c(S(=O)(=O)O)c2)c([N+](=O)[O-])c1,active; inactive
12,CC(=O)[O][Hg][c]1ccccc1,inactive; active
13,CN1CCCC1=O,inactive; active
14,N[C@@H](Cc1ccc(N(CCCl)CCCl)cc1)C(=O)O,active; inactive
15,COc1ccc(C)cc1N,active
16,Nc1cccc(N)c1,active
17,O=C1NC(c2ccc([N+](=O)[O-])s2)Nc2ccccc21 (stereo not given),active
18,C=C(F)F,active
19,c1ccc2n[nH]nc2c1,active; inactive
20,CCn1cc(C(=O)O)c(=O)c2ccc(C)nc21,inactive
21,C[C@@H]1Cc2c(Cl)cc(C(=O)N[C@@H](Cc3ccccc3)C(=O)O)c(O)c2C(=O)O1,inactive
22,O=C(Nc1nc(-c2ccc([N+](=O)[O-])o2)cs1)C(F)(F)F,active
23,CCCOC(=O)c1cc(O)c(O)c(O)c1,inactive
24,OCCOCCOCCO,active; inactive
25,ClC(Cl)=C(Cl)C(Cl)=C(Cl)Cl,inactive; active
26,CCNc1nc(Cl)nc(NC(C)C)n1,inactive; active
27,Nc1cc(Cl)cc(C(=O)O)c1Cl,active

row,Compound,outcome
1,ClCCOCCCl,active
2,COc1c2occc2cc2ccc(=O)oc12,active
3,N#Cc1c(Cl)c(Cl)c(Cl)c(C#N)c1Cl,inactive
4,CCCCC(CC)CO (stereo not given),inactive; active
5,O=C(O)Cc1c[nH]c2ccccc12,inactive
6,Nc1ccccc1C(=O)OC/C=C/c1ccccc1,inactive
7,S=C1NCCN1,active
8,COC(=O)C1=CCCN(N=O)C1,active
9,CCOc1ccc(NC(N)=O)cc1,inactive; active
10,CC(O)CCl (stereo not given),active
11,C=CCc1ccc(O)c(OC)c1,inactive
12,OCC1CO1 (stereo not given),active; inactive
13,C1CC2OC2CC1C1CO1 (stereo not given),active
14,IC(I)I,active
15,ClCc1cccnc1,active; inactive
16,C=CC#N,active
17,Nc1ccc([N+](=O)[O-])cc1O,active
18,CCCCC(CC)COP(=O)(OCC(CC)CCCC)OCC(CC)CCCC (stereo not given),inactive; active
19,CC(O)COC(C)(C)C (stereo not given),active; inactive
20,O=C(O)/C=C/c1ccc(O)c(O)c1,inactive
21,C=CCc1ccc(OC)cc1,inactive; active
22,COc1cc(CNC(=O)CCCC/C=C/C(C)C)ccc1O,inactive; active
23,S=[Se],active
24,O=CC1CO1 (stereo not given),active
25,ClCc1ccccn1,active
26,CNC(=O)CSP(=S)(OC)OC,active
27,CCN(CC)C(=O)c1cccc(C)c1,inactive; active

row,Compound,outcome
1,CCCc1cc(=O)[nH]c(=S)[nH]1,inactive; active
2,O=[N+]([O-])c1ccc2c(c1)Cc1ccccc1-2,active
3,CCCC[N+](=O)[O-],inactive; active
4,C=C(Cl)Cl,active; inactive
5,C1COCCO1,inactive; inconclusive
6,CS(=O)(=O)OCCCCOS(C)(=O)=O,active
7,CN(C)N=Nc1ccccc1,active
8,NC(=O)N(CCO)N=O,active
9,c1ccc(Nc2ccc3ccccc3c2)cc1,inactive; active
10,O.O.O.O.O.O.O=S(=O)([O-])[O-].[Ni+2],inactive; active
11,ClC(Cl)C(Cl)Cl,inactive; active
12,CN(N=O)C(=O)N[C@@H]1[C@@H](O)[C@H](O)[C@@H](CO)O[C@@H]1O,active
13,Oc1ccccc1,inactive
14,O=[N+]([O-])c1ccc(O)c([N+](=O)[O-])c1,inactive
15,ClC1C2(Cl)C3C4C5OC5C5C4C1(Cl)C(Cl)(C53)C2(Cl)Cl (stereo not given),active
16,O=C(CCl)c1ccccc1,inactive
17,Cc1cc(Cc2ccc(N)c(C)c2)ccc1N,active
18,OCCN(CCO)CCO,inactive; active
19,O=P(OCC(Br)CBr)(OCC(Br)CBr)OCC(Br)CBr (stereo not given),active
20,CCC1(c2ccccc2)C(=O)NC(=O)NC1=O,active
21,Nc1ccc(Sc2ccc(N)cc2)cc1,active; inactive
22,O=C1CCc2ccccc2O1,inactive; active
23,O=C(O)COc1cc(Cl)c(Cl)cc1Cl,inactive; active
24,CCN(N=O)C(N)=O,active; inactive
25,C=CC(=O)O,inactive
26,CC12CCC(CC1)C(C)(C)O2,inactive; active
27,CC(=O)Nc1cccc2c1-c1ccccc1C2,active; inactive

row,Compound,outcome
1,CNC(=O)O/N=C/C(C)(C)SC,inactive
2,COS(C)(=O)=O,active
3,CCSCC[C@H](N)C(=O)O,inactive
4,COc1ccc(C(=O)/C(Br)=C\C(=O)O)cc1,active
5,CSCCC(N)C(=O)O (stereo not given),inactive; active
6,O.O=S(=O)([O-])[O-].[Mn+2],inactive; active
7,CCBr,active
8,CCCCOCCO,inactive; active
9,c1ccccc1,inactive; active
10,Nc1nc(N)nc(-c2ccc([N+](=O)[O-])o2)n1,active
11,F,inactive; active
12,CCNC(=O)Nc1ncc([N+](=O)[O-])s1,active; inactive
13,CCn1c2ccccc2c2cc(N)ccc21,active
14,CCCC(Cl)CCC(Cl)CCC(Cl)CCC(Cl)CCC(Cl)CCC(Cl)CCC(C)Cl (stereo not given),inactive
15,NCCS(=O)(=O)O,inactive; active
16,CCCN(CCC)c1c([N+](=O)[O-])cc(C(F)(F)F)cc1[N+](=O)[O-],active
17,O=S1OCC2C(CO1)C1(Cl)C(Cl)=C(Cl)C2(Cl)C1(Cl)Cl (stereo not given),inactive; active
18,C[C@H](CCC(=O)O)[C@H]1CC[C@H]2[C@@H]3CC[C@@H]4C[C@H](O)CC[C@]4(C)[C@H]3CC[C@]12C,inactive
19,O=c1[nH]cc(F)c(=O)[nH]1,inactive; active
20,Clc1ccc2c(c1)Oc1ccc(Cl)cc1O2,inactive
21,C[C@H]1CCCC(=O)CCC/C=C/c2cc(O)cc(O)c2C(=O)O1,inactive; active
22,C=COC(C)=O,inactive
23,C=CCOC(=O)c1ccccc1C(=O)OCC=C,inactive; active
24,O[C@H]([C@H](O)[C@@H](O)CBr)[C@H](O)CBr,active; inactive
